Earlier results as cited in patent publication US5183802A, “Pharmaceutical compositions for intranasal administration of calcitonin” (ISF Societa per Azioni, priority 1987, dated 1993).

Settings: nasal absorption of insulin; compared with sodium caprate

CC1(C)[C@@H](O)CC[C@]2(C)[C@H]3C(=O)C=C4[C@@H]5C[C@@](C)(C(=O)[O-])CC[C@]5(C)CC[C@@]4(C)[C@]3(C)CC[C@@H]12.[Na+] [sodium glycyrrhetinate]
strength as absorption-enhancing agent for insulin: weaker than sodium caprate
